Biological target: T1, Taste receptor type 2 member 31 (Homo sapiens, UniProt P59538)
T1 sequence (P59538 whole entry): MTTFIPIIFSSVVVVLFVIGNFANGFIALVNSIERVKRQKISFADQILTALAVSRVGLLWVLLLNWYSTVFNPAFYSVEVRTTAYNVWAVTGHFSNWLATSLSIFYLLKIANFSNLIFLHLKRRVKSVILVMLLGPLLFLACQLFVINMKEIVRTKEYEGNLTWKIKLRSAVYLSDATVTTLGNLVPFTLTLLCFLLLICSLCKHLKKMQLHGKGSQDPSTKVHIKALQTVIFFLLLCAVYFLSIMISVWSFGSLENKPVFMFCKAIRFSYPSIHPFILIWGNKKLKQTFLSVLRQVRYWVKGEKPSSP
Experiment: Antagonist activity at human TAS2R31 expressed in HEK-293T cells stably expressing Galpha16gust44 assessed as inhibition receptor response to saccharin by fluorescence assay
Assay type: cell-based

Structure (SMILES)	IC50 [µM]
C=C1CC[C@H]2C(C)(C)[C@@H](OC(C)=O)CC[C@]2(C)[C@H]1CC/C(C)=C/C(=O)O	8
CC(=O)O[C@H]1CC[C@]2(C)[C@@H](CC/C(C)=C/C(=O)O)C(C)=CC[C@H]2C1(C)C	> 25

From ChEMBL document CHEMBL3352085, “In vitro evaluation of potential bitterness-masking terpenoids from the Canada goldenrod (Solidago canadensis)” (J Nat Prod, 2014)
